In patent publication US20230219956A1 (BETTA PHARMACEUTICALS CO.,LTD, priority 2019, published 2023):

Experiments:
[1] = Permeability assay, Caco-2 monolayer cell model; format: in vitro ADME; conditions: human, Caco-2, compound 5 μM, Verapamil 0 μM; for efflux ratio at 120 min, 5 μM: read-out: RE (Efflux Ratio)
Method: The Caco-2 monolayer cell model was used to determine the bidirectional permeability and efflux rate of the example compounds and the comparative compounds. In the experiment, 50 μL of 6.86×10^5 cells/mL Caco-2 cells (passage 45) were seeded into 96-well cell culture plates, and cultured continuously for 14-18 days for transport experiments. The corresponding compound was administered bidirectionally with or without verapamil (P glycoprotein (P-gp) inhibitor), at a concentration of 5 μM. At 37° C., after incubating with shaking at 150 rpm for 120 minutes, the top and basal samples were collected, and the content of each compound in the samples was determined by liquid chromatography tandem mass spectrometry (LC/MS/MS).
Refer to the Table 4 for permeability data of some compounds in the examples.

[2] = tested on: MIA-PACA-2 cells; test: Cell proliferation assay, MIA-PACA-2 cells (Cell-titer Glo); format: cell-based; conditions: Homo sapiens, 96 h incubation
In short: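 MIA-PACA-2 cells, 600 per well in ultra-low-attachment plates, exposed 96 h at 37 °C to compound at 0.025–10000 nM final (0.25% DMSO). Viability by CellTiter-Glo luminescence; inhibition normalised to DMSO and cell-free controls, IC50 from curve fit.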

[3] = tested on: H358 cells; test: Cell proliferation assay, H358 cells (Cell-titer Glo); format: cell-based; conditions: Homo sapiens, NCI-H358, 96 h incubation
In short: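 H358 cells, 2000 per well in ultra-low-attachment plates, treated after overnight culture with compound at 10000 to 1.5 nM plus 0 (0.25% DMSO final) for 96 h at 37 °C, 5% CO2. Cell-titer Glo luminescence, normalised to DMSO and cell-free controls; IC50 from curve fit.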

[4] = tested on: CALU-1 cells; test: Cell proliferation assay, CALU-1 cells (Cell-titer Glo); format: cell-based; conditions: Homo sapiens, 120 h incubation
Method: The CALU-1 cells were spread on a 96-well ultra-low adsorption plate with 1000 cells and 190 μL/well. After incubating overnight, compound solutions of gradient concentration was prepared, and added 10 μL of DMSO solution of the test compound of each concentration to the cells of each well. The final concentration of the compound is 30000, 10000, 3333.3, 1111.1, 370.4, 123.5, 41.2, 13.7, 4.6, 0 nM (the final concentration of DMSO is 0.25%). Incubated for 120 h at 37° C. and 5% CO2. 60 μL of Cell-titer Glo working solution was added to each well, shaked and mixed, and incubated at room temperature for 10 minutes. The multi-functional microplate reader read the luminescence value, and converted the luminescence value reading into inhibition percentage.
Inhibition percentage=(maximum value−reading)/(maximum value−minimum value)*100.
The “maximum value” was the DMSO control, the “minimum value” indicates the cell-free control group.
Graphpad Prism software was used to perform curve fitting and obtain IC50 value.
The compounds of the examples have good inhibition on CALU-1 cells, and their activity is better than that of ARS-1620. Refer to Table 2 for the IC50 data of some compounds in the examples inhibiting CALU-1 cells.

Papp A→B at 120 min, 5 μM [1]	Papp B→A at 120 min, 5 μM [1]	efflux ratio at 120 min, 5 μM [1]	IC50 [2]	IC50 [3]	IC50 [4]	SMILES
1.33 ×10⁻⁶ cm/s	5.82 ×10⁻⁶ cm/s	4.36	40.6 nM	6.4 nM		C=CC(=O)N1CC2(CCN(c3nc(C4CCN(C(C)=O)CC4)nc4c(OCC(F)(F)F)c(-c5c(C)ccc6[nH]ncc56)c(C=C)cc34)CC2)C1 [Example 14, 1-(7-(2-(1-acetylpiperidin-4-yl)-7-(5-methyl-1H-indazol-4-yl)-8-(2,2,2-trifluoroethoxy)-6-vinylquinazolin-4-yl)-2,7-diazaspiro[3.5]nonan-2-yl)prop-2-en-1-one]
0.34 ×10⁻⁶ cm/s	10.3 ×10⁻⁶ cm/s	30.6	2.6 nM	4.4 nM		C=CC(=O)N1CC2(CCN(c3nc(C4CCN(C5CCOCC5)CC4)nc4c(OCC(F)(F)F)c(-c5c(C)ccc6[nH]ncc56)c(C=C)cc34)CC2)C1 [Example 58, 1-(7-(7-(5-methyl-1H-indazole-4-yl)-2-(1-(tetrahydro-2H-pyran-4-yl)piperidin-4-yl)-8-(2,2,2-trifluoroethoxy)-6-vinylquinazolin-4-yl)-2,7-diazspiro [3.5]nonan-2-yl) propyl-2-en-1-one]
					4.6 nM	C=CC(=O)N1CC2(CCN(c3nc(C4CCN(C)C4)nc4c(OCC(F)(F)F)c(-c5c(C)ccc6[nH]ncc56)c(C=C)cc34)CC2)C1 (stereo not shown) [Compound 8]
0.21 ×10⁻⁶ cm/s	9.64 ×10⁻⁶ cm/s	46.5			2.9 nM	C=CC(=O)N1CC2(CCN(c3nc(C4CCN(C)CC4)nc4c(OCC(F)(F)F)c(-c5c(C)ccc6[nH]ncc56)c(CC)cc34)CC2)C1 [Compound 4, 1-(7-(6-ethyl-7-(5-methyl-1H-indazol-4-yl)-2-(1-methylpiperidin-4-yl)-8-(2,2,2-trifluoroethoxy)quinazolin-4-yl)-2,7-diazaspiro[3.5]nonan-2-yl)prop-2-en-1-one]
			61.4 nM	44.7 nM		C=CC(=O)N1CC2(CCN(c3nc(C4CCN(C)CC4)nc4c(OCC(F)F)c(-c5c(C)ccc6[nH]ncc56)c(CC)cc34)CC2)C1 [Example 28]
					45.7 nM	C=CC(=O)N1CC2(CCN(c3nc(C4CCOCC4)nc4c(OCC(F)(F)F)c(-c5c(C)ccc6[nH]ncc56)c(C=C)cc34)CC2)C1 [Compound 6, 1-(7-(7-(5-methyl-1H-indazol-4-yl)-2-(tetrahydro-2H-pyran-4-yl)-8-(2,2,2-trifluoroethoxy)-6-vinylquinazolin-4-yl)-2,7-diazaspiro[3.5]nonan-2-yl)prop-2-en-1-one]
			455 nM	1080 nM		C=CC(=O)N1CC2(CCN(c3nc(C4CCN(C)CC4)nc4c(OCCF)c(-c5c(C)ccc6[nH]ncc56)c(CC)cc34)CC2)C1 [Example 29]
			13.7 nM	15.5 nM		C=CC(=O)N1CC2(CCN(c3nc(C4CCN(CC(=O)C(C)(C)C)CC4)nc4c(OCC(F)(F)F)c(-c5c(C)ccc6[nH]ncc56)c(C=C)cc34)CC2)C1 [Example 70, 1-(4-(4-(2-acryloyl-2,7-diazspiro [3.5]nonan-7-yl)-7-(5-methyl-1H-indazole-4-yl)-8-(2,2,2-trifluoroethoxy)-6-vinylquinazolin-2-yl)piperidin-1-yl)-3,3-dimethylbutane-2-one]
			10.3 nM	6.7 nM		C=CC(=O)N1CC2(CCN(c3nc(C4CCN(C5CCN(C6CC6)CC5)CC4)nc4c(OCC(F)(F)F)c(-c5c(C)ccc6[nH]ncc56)c(C=C)cc34)CC2)C1 [Example 74, 1-(7-(2-(1′-cyclopropyl-[1,4′-bipiperidine]-4-yl)-7-(5-methyl-1H-indazole-4-yl)-8-(2,2,2-trifluoroethoxy)-6-vinylquinazolin-4-yl)-2,7-diazspiro [3.5]nonan-2-yl) propyl-2-en-1-one]
0.51 ×10⁻⁶ cm/s	7.18 ×10⁻⁶ cm/s	14.2			2.7 nM	C=CC(=O)N1CC2(CCN(c3nc(C4CCN(C)CC4)nc4c(OCC(F)(F)F)c(-c5c(C)ccc6[nH]ncc56)c(C=C)cc34)CC2)C1 [Compound 1, 1-(7-(7-(5-methyl-1H-indazol-4-yl)-2-(1 methylpiperidin-4-yl)-8-(2,2,2-trifluoroethoxy)-6-vinylquinazolin-4-yl)-2,7-diazaspiro[3.5]nonan-2-yl)prop-2-en-1-one]
			34 nM	37 nM		C=CC(=O)N1CC2(CCN(c3nc(C4CN(CC)C4)nc4c(OCC(F)(F)F)c(-c5c(C)ccc6[nH]ncc56)c(CC)cc34)CC2)C1 [Example 46, 1-(7-(6-ethyl-2-(1-ethyl-azacyclobutane-3-yl)-7-(5-methyl-1H-indazole-4-yl)-8-(2,2,2-trifluoroethoxy)quinazolin-4-yl)-2,7-diazarospiro [3.5]nonan-2-yl) propyl-2-en-1-one]

The next lines start with the compound.

SMILES	Papp A→B at 120 min, 5 μM [1]	Papp B→A at 120 min, 5 μM [1]	efflux ratio at 120 min, 5 μM [1]	IC50 [2]	IC50 [3]	IC50 [4]
C=CC(=O)N1CC2(CCN(c3nc(OC4CCN(C5CCOCC5)CC4)nc4c(OCC(F)(F)F)c(-c5c(C)ccc6[nH]ncc56)c(C=C)cc34)CC2)C1 [Compound D1, reference compound]	0.06 ×10⁻⁶ cm/s	6.75 ×10⁻⁶ cm/s	113			
C=CC(=O)N1CCN(c2ncnc3c(F)c(-c4c(O)cccc4F)c(Cl)cc23)CC1 [ARS-1620, reference compound]				284 nM		245 nM
C=CC(=O)N1CC2(CCN(c3nc(C4CCN(C)CC4)nc4c(F)c(-c5c(C)ccc6[nH]ncc56)c(C=C)cc34)CC2)C1 [Compound 5, 1-(7-(8-fluoro-7-(5-methyl-1H-indazol-4-yl)-2-(1-methylpiperidin-4-yl)-synthesis of 6-vinylquinazolin-4-yl)-2,7-diazaspiro[3.5]nonan-2-yl)prop-2-en-1-one]						103 nM
C=CC(=O)N1CC2(CCN(c3nc(C4CCN(C)CC4)nc4c(OCC(F)F)c(-c5c(C)ccc6[nH]ncc56)c(Cl)cc34)CC2)C1 [Example 34]				36.9 nM	39 nM	
C=CC(=O)N1CC2(CCN(c3nc(C4CCN(CC)CC4)nc4c(OCC(F)(F)F)c(-c5c(C)ccc6[nH]ncc56)c(C=C)cc34)CC2)C1 [Example 9, 1-(7-(2-(1-ethylpiperidin-4-yl)-7-(5-methyl-1H-indazol-4-yl)-8-(2,2,2-trifluoroethoxy)-6-vinylquinazolin-4-yl)-2,7-diazaspiro[3.5]nonan-2-yl)prop-2-en-1-one]				2.1 nM	3.7 nM	
C=CC(=O)N1CC2(CCN(c3nc(C4CCN(C)CC4)nc4c(OC5CCC5)c(-c5c(C)ccc6[nH]ncc56)c(CC)cc34)CC2)C1 [Example 26]				68.2 nM	24.9 nM	
C=CC(=O)N1CC2(CCN(c3nc(C4CCN(C)CC4)nc4c(OCC(F)F)c(-c5c(C)ccc6[nH]ncc56)c(C=C)cc34)CC2)C1 [Example 48, 1-(7-(8-(2,2-difluoroethoxy)-7-(5-methyl-1H-indazol-4-yl)-2-(1-methylpiperidin-4-yl)-6-vinylquinazolin-4-yl)-2,7-diazspiro [3.5]nonan-2-yl) propyl-2-en-1-one]				9.8 nM	11.5 nM	
C=CC(=O)N1CC2(CCN(c3nc(C4CCN(C5CCN(C)CC5)CC4)nc4c(OCC(F)(F)F)c(-c5c(C)ccc6[nH]ncc56)c(C=C)cc34)CC2)C1 [Example 66, 1-(7-(7-(5-methyl-1H-indazol-4-yl)-2-(1′-methyl-[1,4-bipiperidine]-4-yl)-8-(2,2,2-trifluoroethoxy)-6-vinylquinazolin-4-yl)-2,7-diazspiro [3.5]nonan-2-yl) propyl-2-en-1-one]				8.5 nM	11.5 nM	
